Laboratory results taken from patent US20100267561A1, “HERBICIDAL PYRIDAZINONE DERIVATIVES” (priority 2007, published 2010).

What was measured:
Type in all cases: in vivo
[1] = tested on: barnyardgrass (Echinochloa crus-galli); assay: Test A pre-/postemergence plant response
Outline: (§1)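 Greenhouse pot test: loam–sand soil; pre- and postemergence sprays applied same day; post plants 2–10 cm, 1–2 leaves. Readout ~10 d, visual % injury vs untreated (0 = none, 100 = complete control).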

[2] = tested on: corn (Zea mays); assay: Test A pre-/postemergence plant response
Outline: as §1

[3] = tested on: giant foxtail (Setaria faberi); assay: Test A pre-/postemergence plant response
Outline: as §1

[4] = tested on: large crabgrass (Digitaria sanguinalis); assay: Test A pre-/postemergence plant response
Outline: as §1

[5] = tested on: morningglory (Ipomoea coccinea); assay: Test A pre-/postemergence plant response
Outline: as §1

[6] = tested on: pigweed (Amaranthus retroflexus); assay: Test A pre-/postemergence plant response
Outline: as §1

[7] = tested on: velvetleaf (Abutilon theophrasti); assay: Test A pre-/postemergence plant response
Outline: as §1

[8] = tested on: wheat (Triticum aestivum); assay: Test A pre-/postemergence plant response
Outline: as §1

[9] = tested on: canarygrass (Phalaris minor); assay: Test B postemergence plant response; conditions: for Canarygrass plant response rating: 8 g ai/ha, postemergence, 0-100 scale; for Plant response rating, Canarygrass: Postemergence
Outline: (§2)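 Visual injury ratings on a 0–100 scale, where 100 means complete control, were made 13 to 15 days after postemergence treatment of greenhouse-grown plants at the 1- to 4-leaf stage.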

[10] = tested on: chickweed (Stellaria media); assay: Test B postemergence plant response; conditions: for Chickweed plant response rating: 8 g ai/ha, postemergence, 0-100 scale; for Plant response rating, Chickweed: Postemergence
Outline: as §2

[11] = tested on: windgrass (Apera spica-venti); assay: Test B postemergence plant response; conditions: for Windgrass plant response rating: 8 g ai/ha, postemergence, 0-100 scale; for Plant response rating, Windgrass: Postemergence
Outline: as §2

[12] = tested on: winter barley (Hordeum vulgare); assay: Test B postemergence plant response; conditions: for Barley plant response rating: 8 g ai/ha, postemergence, 0-100 scale; for Plant response rating, Barley: Postemergence, scale 0 to 100, 0 no effect, 100 complete control
Outline: as §2

[13] = Postemergence, 31 g ai/ha, 0 to 100 scale, 0 no effect, 100 complete control
[14] = Postemergence, 125 g ai/ha, 0 to 100 scale, 0 no effect, 100 complete control
[15] = Preemergence, 31 g ai/ha, 0 to 100 scale, 0 is no effect, 100 is complete control
[16] = Preemergence, 125 g ai/ha, 0 to 100 scale (0 no effect, 100 complete control)
[17] = 62 g ai/ha, scale 0 to 100, 0 no effect, 100 complete control

## Cc1cc(-c2ccc(Cl)cc2)nn1-c1c(OC(=O)c2cccs2)cnn(C)c1=O [Compound 52]
[1]; [13]
  Plant response rating, Barnyardgrass: 80
[1]; [14]
  Plant response rating, Barnyardgrass: 100
[1]; [15]
  Plant response rating, Barnyardgrass: 70
[1]; [16]
  Plant response rating, Barnyardgrass: 100
[2]; [13]
  Plant response rating, Corn: 30
[2]; [14]
  Plant response rating, Corn: 100
[2]; [15]
  Plant response rating, Corn: 0
[2]; [16]
  Plant response rating, Corn: 70
[3]; [13]
  Plant response rating, Foxtail, Giant: 80
[3]; [14]
  Plant response rating, Foxtail, Giant: 90
[3]; [15]
  Plant response rating, Foxtail, Giant: 100
[3]; [16]
  Plant response rating, Foxtail, Giant: 100
[4]; [13]
  Plant response rating, Crabgrass, Large: 60
[4]; [14]
  Plant response rating, Crabgrass, Large: 90
[4]; [15]
  Plant response rating, Crabgrass, Large: 30
[4]; [16]
  Plant response rating, Crabgrass, Large: 100
[5]; [13]
  Plant response rating, Morningglory: 0
[5]; [14]
  Plant response rating, Morningglory: 0
[5]; [15]
  Plant response rating, Morningglory: 0
[5]; [16]
  Plant response rating, Morningglory: 20
[6]; [13]
  Plant response rating, Pigweed: 0
[6]; [14]
  Plant response rating, Pigweed: 0
[6]; [15]
  Plant response rating, Pigweed: 0
[6]; [16]
  Plant response rating, Pigweed: 0
[7]; [13]
  Plant response rating, Velvetleaf: 0
[7]; [14]
  Plant response rating, Velvetleaf: 20
[7]; [16]
  Plant response rating, Velvetleaf: 0
[8]; [13]
  Plant response rating, Wheat: 30
[8]; [14]
  Plant response rating, Wheat: 60
[8]; [15]
  Plant response rating, Wheat: 10
[8]; [16]
  Plant response rating, Wheat: 80
[9]
  Canarygrass plant response rating: 0
[9]; 16 g ai/ha, scale 0 to 100
  Plant response rating, Canarygrass: 0
[9]; 31 g ai/ha, scale 0 to 100
  Plant response rating, Canarygrass: 0
[9]; [17]
  Plant response rating, Canarygrass: 5
[10]
  Chickweed plant response rating: 0
[10]; 16 g ai/ha, scale 0 to 100
  Plant response rating, Chickweed: 0
[10]; 31 g ai/ha, scale 0 to 100
  Plant response rating, Chickweed: 0
[10]; [17]
  Plant response rating, Chickweed: 0
[11]
  Windgrass plant response rating: 0
[11]; 16 g ai/ha, scale 0 to 100
  Plant response rating, Windgrass: 0
[11]; 31 g ai/ha, scale 0 to 100
  Plant response rating, Windgrass: 60
[11]; [17]
  Plant response rating, Windgrass: 80
[12]
  Barley plant response rating: 0
[12]; 16 g ai/ha
  Plant response rating, Barley: 0
[12]; 31 g ai/ha
  Plant response rating, Barley: 0
[12]; 62 g ai/ha
  Plant response rating, Barley: 0

## CCOC(=O)Oc1cnn(C)c(=O)c1-n1nc(-c2ccc(Cl)cc2)cc1C [Compound 53]
[1]; [13]
  Plant response rating, Barnyardgrass: 90
[1]; [14]
  Plant response rating, Barnyardgrass: 100
[1]; [15]
  Plant response rating, Barnyardgrass: 100
[1]; [16]
  Plant response rating, Barnyardgrass: 100
[2]; [13]
  Plant response rating, Corn: 80
[2]; [14]
  Plant response rating, Corn: 90
[2]; [15]
  Plant response rating, Corn: 0
[2]; [16]
  Plant response rating, Corn: 70
[3]; [13]
  Plant response rating, Foxtail, Giant: 90
[3]; [14]
  Plant response rating, Foxtail, Giant: 100
[3]; [15]
  Plant response rating, Foxtail, Giant: 100
[3]; [16]
  Plant response rating, Foxtail, Giant: 100
[4]; [13]
  Plant response rating, Crabgrass, Large: 80
[4]; [14]
  Plant response rating, Crabgrass, Large: 100
[4]; [15]
  Plant response rating, Crabgrass, Large: 90
[4]; [16]
  Plant response rating, Crabgrass, Large: 100
[5]; [13]
  Plant response rating, Morningglory: 0
[5]; [14]
  Plant response rating, Morningglory: 20
[5]; [15]
  Plant response rating, Morningglory: 0
[5]; [16]
  Plant response rating, Morningglory: 0
[6]; [13]
  Plant response rating, Pigweed: 0
[6]; [14]
  Plant response rating, Pigweed: 0
[6]; [15]
  Plant response rating, Pigweed: 0
[6]; [16]
  Plant response rating, Pigweed: 0
[7]; [13]
  Plant response rating, Velvetleaf: 0
[7]; [14]
  Plant response rating, Velvetleaf: 0
[7]; [15]
  Plant response rating, Velvetleaf: 0
[7]; [16]
  Plant response rating, Velvetleaf: 0
[8]; [13]
  Plant response rating, Wheat: 20
[8]; [14]
  Plant response rating, Wheat: 70
[8]; [15]
  Plant response rating, Wheat: 50
[8]; [16]
  Plant response rating, Wheat: 90
[9]
  Canarygrass plant response rating: 0
[9]; 16 g ai/ha, scale 0 to 100
  Plant response rating, Canarygrass: 0
[9]; 31 g ai/ha, scale 0 to 100
  Plant response rating, Canarygrass: 0
[9]; [17]
  Plant response rating, Canarygrass: 0
[10]
  Chickweed plant response rating: 0
[10]; 16 g ai/ha, scale 0 to 100
  Plant response rating, Chickweed: 0
[10]; 31 g ai/ha, scale 0 to 100
  Plant response rating, Chickweed: 0
[10]; [17]
  Plant response rating, Chickweed: 0
[11]
  Windgrass plant response rating: 0
[11]; 16 g ai/ha, scale 0 to 100
  Plant response rating, Windgrass: 20
[11]; 31 g ai/ha, scale 0 to 100
  Plant response rating, Windgrass: 40
[11]; [17]
  Plant response rating, Windgrass: 60
[12]
  Barley plant response rating: 0
[12]; 16 g ai/ha
  Plant response rating, Barley: 0
[12]; 31 g ai/ha
  Plant response rating, Barley: 0
[12]; 62 g ai/ha
  Plant response rating, Barley: 0

## Cc1cc(-c2ccc(Cl)cc2)nn1-c1c(OC(=O)Oc2ccccc2)cnn(C)c1=O [Compound 54]
[1]; [13]
  Plant response rating, Barnyardgrass: 80
[1]; [14]
  Plant response rating, Barnyardgrass: 100
[1]; [15]
  Plant response rating, Barnyardgrass: 70
[1]; [16]
  Plant response rating, Barnyardgrass: 100
[2]; [13]
  Plant response rating, Corn: 40
[2]; [14]
  Plant response rating, Corn: 90
[2]; [15]
  Plant response rating, Corn: 0
[2]; [16]
  Plant response rating, Corn: 60
[3]; [13]
  Plant response rating, Foxtail, Giant: 90
[3]; [14]
  Plant response rating, Foxtail, Giant: 100
[3]; [15]
  Plant response rating, Foxtail, Giant: 90
[3]; [16]
  Plant response rating, Foxtail, Giant: 100
[4]; [13]
  Plant response rating, Crabgrass, Large: 70
[4]; [14]
  Plant response rating, Crabgrass, Large: 90
[4]; [15]
  Plant response rating, Crabgrass, Large: 60
[4]; [16]
  Plant response rating, Crabgrass, Large: 100
[5]; [13]
  Plant response rating, Morningglory: 0
[5]; [14]
  Plant response rating, Morningglory: 0
[5]; [15]
  Plant response rating, Morningglory: 0
[5]; [16]
  Plant response rating, Morningglory: 20
[6]; [13]
  Plant response rating, Pigweed: 0
[6]; [14]
  Plant response rating, Pigweed: 0
[6]; [15]
  Plant response rating, Pigweed: 0
[6]; [16]
  Plant response rating, Pigweed: 0
[7]; [13]
  Plant response rating, Velvetleaf: 0
[7]; [14]
  Plant response rating, Velvetleaf: 0
[7]; [15]
  Plant response rating, Velvetleaf: 0
[7]; [16]
  Plant response rating, Velvetleaf: 0
[8]; [13]
  Plant response rating, Wheat: 30
[8]; [14]
  Plant response rating, Wheat: 60
[8]; [15]
  Plant response rating, Wheat: 0
[8]; [16]
  Plant response rating, Wheat: 60
[9]
  Canarygrass plant response rating: 0
[9]; 16 g ai/ha, scale 0 to 100
  Plant response rating, Canarygrass: 0
[9]; 31 g ai/ha, scale 0 to 100
  Plant response rating, Canarygrass: 0
[9]; [17]
  Plant response rating, Canarygrass: 0
[10]
  Chickweed plant response rating: 0
[10]; 16 g ai/ha, scale 0 to 100
  Plant response rating, Chickweed: 0
[10]; 31 g ai/ha, scale 0 to 100
  Plant response rating, Chickweed: 0
[10]; [17]
  Plant response rating, Chickweed: 0
[11]
  Windgrass plant response rating: 0
[11]; 16 g ai/ha, scale 0 to 100
  Plant response rating, Windgrass: 20
[11]; 31 g ai/ha, scale 0 to 100
  Plant response rating, Windgrass: 20
[11]; [17]
  Plant response rating, Windgrass: 80
[12]
  Barley plant response rating: 0
[12]; 16 g ai/ha
  Plant response rating, Barley: 0
[12]; 31 g ai/ha
  Plant response rating, Barley: 0
[12]; 62 g ai/ha
  Plant response rating, Barley: 0
